Measurements taken from US20050272682A1, “SiRNA targeting PI3K signal transduction pathway and siRNA-based therapy” (priority 2004, published 2005).
Entries after “also recorded” stand apart in the source; their conditions may differ.

Key:
KM20 cells [1] = assay: MTT assay, KM20 cells; format: cell-based, human; settings: KM20 cells at 96, 120 and 144 h after transfection
Experimental: (§1) Cells were transfected with pik3r1, Akt1 or scrambled siRNA at a density of 2×10^5 cells/well in 12 well plates. After 24 h, adherent cells were detached by rapid trypsinization, counted in a Hausser chamber and replated into 96 well plates at a concentration of 2×10^3 cells/well. […]

KM12C cells [2] = assay: Ribonuclease protection assay, KM12C cells; format: cell-based, human
Experimental: (§2) Cells were treated with pik3r1 and Akt1 siRNA and harvested 72 h later. RNA was isolated from cells using TRIzol® RNA reagent according to the manufacturer's protocol. A multiprobe template set (hAPO3c), which assesses expression of caspase 8, FASL, FAS, DR3, Decoy receptor 1 (DcR1), DR4, DR5, TRAIL, TNFR p55, TRADD and the housekeeping genes GAPDH and L32, as well as the Human Apoptosis hAPO-2b and hAPO-2c Template Set were labeled using Ambion T7 MAXIscript. The Ambion RPA III kit was then utilized to hybridize the RNA from the samples with the labeled probes. After RNAse treatment of hybridized samples, protected products were resolved on a 5% acrylamide gel, adsorbed onto filter paper, and exposed to Kodak BioMax MR film in a cassette at −70° C. and analyzed as previously described (Wang, et al., 2000).

KM12C cells [3] = assay: MTT assay, KM12C cells; format: cell-based, human; settings: KM12C cells at 96, 120 and 144 h after transfection
Experimental: as §1

KM20 cells [4] = assay: DNA fragmentation assay (Cell Death Detection ELISA), KM20 cells; format: cell-based, human; settings: KM20 cells
Experimental: Cells were transfected with pik3r1, Akt1 or scrambled siRNA. After 48 h, adherent cells were detached by rapid trypsinization, counted in a Hausser chamber and seeded at a density of 2×10^3 cells per well in 96-well flat-bottom microtiter plates and incubated in 250 μl of growth medium for 24 h at 37° C. Media were removed and either new complete media or TRAIL (100 ng/mL) was added in a final volume of 200 μL and allowed to grow for 24 h at 37° C. After treatment, DNA fragmentation was evaluated by examination of cytoplasmic histone-associated DNA fragments (mono- and oligonucleosomes) using a Cell Death Detection ELISA^Plus kit (Roche Molecular Biochemicals) according to the manufacturer's instructions and as previously described (Wang. et al., 2002). The experiments were repeated on at least 3 separate occasions.

KM20 cells [5] = assay: Ribonuclease protection assay, KM20 cells; format: cell-based, human
Experimental: as §2

KM20 tumor xenografts = assay: Western blot of KM20 tumor xenografts after siRNA treatment; format: in vivo, mice
Experimental: Western immunoblot analyses were performed as described previously (Wang, et al., 2000). Cells were lysed with TNN buffer at 4° C. for 30 min. Lysates were clarified by centrifugation (10,000×g for 30 min at 4° C.) and protein concentrations determined using the method of Bradford (1976). Briefly, total protein (100 μg) was resolved on a 10% polyacrylamide gel and transferred to Immobilon-P […] membranes. Filters were incubated overnight at 4° C. in blotting solution (Tris-buffered saline containing 5% nonfat dried milk and 0.1% Tween 20), followed by a 1-h incubation with primary antibodies. Filters were washed three times in a blocking solution and incubated with horseradish peroxidase-conjugated secondary antibodies for 1 h. After three additional washes, the immune complexes were visualized by ECL detection.
Prior to tumor injection, KM20 cells were harvested, washed twice in ice-cold serum free minimum Eagle's medium, counted for viable cells by trypan blue exclusion. The cells were resuspended in the same medium and used to inject mice subcutaneously (sc) with 2×10^6 cells in a volume of 0.2 ml. After tumors reached ˜60 mm^2, mice were sacrificed and 9 mm^2 tumor xenografts were transferred to the left flank of athymic mice. After tumor xenografts reached ˜60 mm^2 (day 10), mice were randomly divided into three groups (n=5 mice/group): the first group of mice was treated with scrambled siRNA, the second and third groups were treated with siRNA (5 μg diluted in 100 μl of serum free medium) directed against pik3r1 or Akt1, respectively, as intratumoral injections. Treatments consisted of electrotherapy initiated from 2 to 3 min after intratumoral siRNA injection once a day every 3 days. Tumor growth was assessed every third day from day 10 onward by measuring the two greatest perpendicular tumor dimensions using vernier calipers (Mitutozo, Tokyo, Japan) (Wang, et al., 2002). Consistent with institutional requirements, the mice were euthanized once tumors grew to a size greater that 2 cm.
Electrotherapy consisted of intratumoral administration of pik3r1, Akt1 or scrambled control siRNA followed by exposure of tumor nodules to electric pulses. Square wave electric pulses of 70 μsec, 100 V amplitude were delivered through two parallel stainless steel electrodes (Tweezertrode Model 522, Holliston, Mass.) with an electropulsator BTX T 820 (Holliston, Mass.). In the study, plate electrodes with a distance of 10 mm between them were used for percutaneous delivery of electric pulses. Each run of electric pulses was delivered in two trains of tree pulses, with 1 sec interval, in two perpendicular directions. The orientation of the electric field was used to direct the uptake of the siRNA. Good contact between the electrodes and the skin was assured by means of a conductive gel. Nodules larger than 7 mm in diameter were treated with several runs of electric pulses, administered in adjacent positions in such a way that the whole tumor area was effectively treated.

pik3r1 siRNA: siRNA to human pik3r1 (p85α) used in KM20/KM12C cells and xenografts; SEQ ID NO:24 vs. SEQ ID NO:25 (chain 1 GAAUAUACCCGCACAUCCCUU; chain 2 GGGAUGUGCGGGUAUAUUCUU; listed as RNA, chemistry not given here)
significant augmentation: TRAIL-mediated apoptosis (DNA fragmentation) (KM20 cells [4]; siRNA in combination with TRAIL 100 ng/mL)
no marked change: expression of the other apoptotic-related genes in the probe set (KM20 cells [5])
increased: mRNA expression of DR4 and DR5 (KM20 cells [5]) | Bax protein expression (KM20 tumor xenografts) | PARP cleavage (KM20 tumor xenografts) | activation of caspase-3 (KM20 tumor xenografts) | activation of caspase-8 (KM20 tumor xenografts) | activation of caspase-9 (KM20 tumor xenografts) | cytochrome C expression (KM20 tumor xenografts; compared with scrambled control)
significantly decreased: cell viability (MTT) (KM20 cells [1]) | cell viability (MTT) (KM12C cells [3])
increase; also recorded: induced: DNA fragmentation (apoptosis) (KM20 cells [4]; siRNA alone compared to scrambled sequence)
decreased: Bcl-w mRNA expression (KM12C cells [2]) | Bcl-x (L, S) mRNA expression (KM12C cells [2]) | Bcl-w mRNA expression (KM20 cells [5]) | Bcl-x (L, S) mRNA expression (KM20 cells [5]) | p85α expression (KM20 tumor xenografts) | pAkt expression (KM20 tumor xenografts) | Bcl-xL protein expression (KM20 tumor xenografts; compared to scrambled sequence) | Mcl-1 protein expression (KM20 tumor xenografts; compared to scrambled sequence)
